From US7824745B2, “Benzochromene derivatives” (Merck Patent GmbH, priority 2005, dated 2010)

What was measured:
[1] = Dielectric anisotropy Δ∈ of the compounds, dissolved in a liquid-crystalline host, capacitance at 1 kHz, extrapolated to 100%; format: physicochemical; details: extrapolated from 5% solution in ZLI-2857, 20° C.
Description: In the present application, the term dielectrically positive compounds denotes compounds having a Δ∈ of >1.5, the term dielectrically neutral compounds denotes those in which −1.5≦Δ∈≦1.5, and the term dielectrically negative compounds denotes those having a Δ∈ of <−1.5. The […] of this mixture at 1 kHz in at least one test cell with a layer thickness of about 20 μm having a homeotropic surface alignment and at least one test cell with a layer thickness of about 20 μm having a homogeneous surface alignment. The measurement voltage is typically 0.5 V to 1.0 V, but is always less than the capacitive threshold of the respective liquid-crystal mixture. […]
(§1) All concentrations in this application, unless explicitly stated otherwise, are indicated in percent by weight and relate to the corresponding mixture as a whole. All physical properties are and have been determined in accordance with “Merck Liquid Crystals, Physical Properties of Liquid Crystals”, status November 1997, Merck KGaA, Germany, and apply to a temperature of 20° C., unless explicitly stated otherwise. An is determined at 589 nm and Δ∈ at 1 kHz.
(§2) The following examples are intended to explain the invention without limiting it. […] V10, V50 and V90 (the threshold voltage, mid-grey voltage and saturation voltage respectively) and V0 (the capacitive threshold voltage) were each determined at 20° C.

[2] = Optical anisotropy Δn (589 nm, 20° C.), host mixture ZLI-4792; format: physicochemical; details: 5% in ZLI-4792
Procedure: The host mixture used for determining the applicationally relevant physical parameters is ZLI-4792 from Merck KGaA, Germany. As an exception, the determination of the dielectric anisotropy of dielectrically negative compounds is carried out using ZLI-2857, likewise from Merck KGaA, Germany. The values for the respective compound to be investigated are obtained from the change in the properties, for example the dielectric constants, of the host mixture after addition of the compound to be investigated and extrapolation to 100% of the compound employed. […]
as §1
as §2, with “it. Above and below, percentages are percent by weight.” for “it.”

Δ∈ [1]: −7.5
Δn [2]: 0.1302
melting point: 108 °C
Structure (SMILES): CCCC1CCc2c(c(=O)oc3cc(OCC)ccc23)C1 (stereo not drawn) [Example 1.1, 3-ethoxy-8-propyl-7,8,9,10-tetrahydrobenzo[c]chromen-6-one]
